Results published in patent publication US9738599B2, “Thromboxane receptor antagonists” (UNIVERSITY COLLEGE DUBLIN, NATIONAL UNIVERSITY OF IRELAND, …, priority 2012, dated 2017).

Test system: human platelets
Assay: U46619-induced human platelet aggregation ex vivo in platelet rich plasma
Type: cell-based
Settings: fold less potent than TP20
Text: A modification of the turbidimetric method originally developed by Born & Cross (Born, G. V. and Cross, M. J., The Aggregation of Blood Platelets, J Physiol, 1963, 168:178-95) is used. The principle is based on the diffraction of the light by particles. When a light beam passes through a suspension of particles, it is diffracted, depending on the number and the size of the particles in suspension.
In the Born & Cross method, a light beam passes through a platelet suspension and the quantity of light is measured by a detector placed after the sample. Upon platelet aggregation, the size of platelet aggregates will increase while the total number of free platelets will decrease. Consequently, less light will be diffracted and the detector will record an increase in light intensity. The aggregometer has been developed based on these concepts. Variations in light transmission recorded by this device reflects the platelet physiology. When an agonist of platelet aggregation is added to a platelet suspension, platelets undergo activation and shape change. […]
Light transmission (T) is measured throughout all the experiment, which is ended 8 minutes after induction of aggregation. Maximal light transmission (Tmax) is determined in the sample without drugs. Minimal light transmission (Tmin) is measured in PRP without inducer. […]

COc1ccc(-c2cccc(Oc3ccc(C#N)cc3S(=O)(=O)NC(=O)NC(C)(C)C)c2)cc1 [NTP4, N-(tert-butylcarbamoyl)-5-cyano-2-((4′-methoxy-[1,1′-biphenyl]-3-yl)oxy)benzenesulfonamide]
Potency relative to TP20, inhibition of U46619-mediated platelet aggregation: approx. ten-fold
